Measurements from patent US20240166703A1, “ANTI-INFLAMMATORY PEPTIDE AND METHOD OF USE THEREOF” (The Regents of the University of California, priority 2021, published 2024).
Entries after “also recorded” stand apart in the source; their conditions may differ.

Assays:
[1] = test system: constitutive nuclear transcription factor Oct1; assay: EMSA of Oct1 binding to its probe, HeLa nuclear extracts; assay type: cell-based, human; settings: peptide 10-50 μM
[2] = test system: canonical NF-κB signaling through IKK2 in HeLa cells; assay: Western blot of canonical NF-κB signaling in TNF-α-treated HeLa cells; assay type: cell-based, human; settings: increasing peptide concentrations
Procedure: (§1) To prepare nuclear and cytoplasmic protein extracts, HeLa, MEF, and RAW 264.7 cells were lysed in buffer containing 4.3 mM Na2HPO4, 1.47 mM KH2PO4 pH 7.4, 137 mM NaCl, 2.7 mM KCl, 1 mM DTT, 0.05% (v/v) NP-40, and 1×protease inhibitor cocktail for 10 minutes on ice and spun at 3,000 rpm at 4° C. for 10 minutes. The supernatant containing the cytoplasmic fraction was quantified by Bio-Rad protein assay to determine the total amount of protein. Pellets were resuspended in nuclear extraction buffer (25 mM Tris-HCl pH 7.5, 420 mM NaCl, 10% glycerol, 0.2 mM EDTA, 1 mM DTT, 0.5 mM PMSF, 1×protease inhibitor cocktail) once and then subjected to three lysis cycles (freeze at −80° C. and thaw at 37° C.). Finally, samples were centrifuged at 13,000 rpm at 4° C. for 20 minutes, and supernatants containing the soluble nuclear fraction were measured by the Bio-Rad protein assay to determine the total amount of protein. Nuclear and cytoplasmic extracts were aliquoted and kept at −80° C.
(§2) HeLa, MEF, RAW 264.7 cells were cultured in Dulbecco's MEM containing 10% fetal bovine […] supplemented with penicillin and streptomycin, at 37° C. in a humidity incubator with 5% CO2. RAW 264.7 cells were seeded and allowed to adhere for 24 hours then treated with NEMO^ActPep or NEMO^ActPep 6G at different concentrations 60 min before the LPS challenge (100 ng/ml). After 2 hours, nuclear and cytoplasmic extracts were collected. HeLa and MEF cells seeded for 24 hours then treated with NEMO^ActPep or NEMO^ActPep 6G at different concentrations 60 min before the TNF-α challenge (10 ng/ml) for 15 minutes and then nuclear and cytoplasmic extracts were collected. MEF cells were treated with NEMO^ActPep or NEMO^ActPep 6G at different concentrations 1 hour before the LTβR challenge (300 ng/ml). After 24 hours whole cell extracts were collected and aliquoted and kept at −80° C. for further experiments.
(§3) Equivalent amounts of protein from cell extracts was separated by SDS-PAGE and transferred to polyvinylidene fluoride (PVDF) membranes (Millipore, Bedford, MA, USA). The membrane was blocked with 5% bovine serum albumin (BSA) for 1 hour at room temperature and then the membrane was incubated with the primary antibodies overnight at 4° C. Antibodies for IKK2, His, HA, Myc, GST, Ubiquitin, IκBα, phospho-IKK2, p65/ReIA, p84, γ-Actin, p100/52, phospho-ERK, phospho-JNK, phospho-p38, ERK, JNK, and p38 were used for detecting multiple specific protein targets. After binding of an appropriate secondary antibody coupled to horseradish peroxidase, the immunoreactive bands were visualized by enhanced chemiluminescence substrate.
The inhibitory effects of TAT-NEMO^ActPep were further verified on canonical NF-κB signaling in HeLa cells by assessing IKK2 activation loop phosphorylation, IκBα degradation, and NF-κB ReIA/p65 subunit subcellular localization. Consistent with the observations of decreased nuclear NF-κB DNA binding activity by EMSA, treatment with TAT-NEMO^ActPep blocked IKK2 phosphorylation, IκBα proteolysis, and nuclear translocation of ReIA (FIG. 5B).

[3] = test system: NF-κB DNA binding in RAW 264.7 murine macrophage cells; assay: EMSA of NF-κB DNA binding, nuclear lysates of LPS-treated RAW 264.7 cells; assay type: cell-based
Procedure: as §1
HeLa, MEF, RAW 264.7 cells were cultured in Dulbecco's MEM containing 10% fetal bovine […] supplemented with penicillin and streptomycin, at 37° C. in a humidity incubator with 5% CO2. RAW 264.7 cells were seeded and allowed to adhere for 24 hours then treated with NEMO^ActPep or NEMO^ActPep 6G at different concentrations 60 min before the LPS challenge (100 ng/ml). After 2 hours, nuclear and cytoplasmic extracts were collected. […]
(§4) Electrophoretic mobility shift assay (EMSA) was performed using recombinant full length NF-κB ReIA homodimer as a positive control as previously described (45). […] The amount of protein in lysates was quantified by Bio-Rad protein assay. EMSA analysis with quantitative densitometry and signal intensity was quantitated using ImageJ software. […]
(§5) It was then tested if the observed effect is universal across species and cell types. […] The effect of TAT-NEMO^ActPep on NF-κB DNA binding was also analyzed in MEF cells by EMSA.

[4] = test system: canonical NF-κB signaling through IKK2 in RAW 264.7 murine macrophage cells; assay: Western blot of canonical NF-κB signaling in LPS-treated RAW 264.7 cells; assay type: cell-based; settings: 100 ng/mL LPS for 2 hours
Procedure: as §1, §2, §3
It was then tested if the observed effect is universal across species and cell types. The effect of TAT-NEMO^ActPep was tested in RAW 264.7 murine macrophage cells treated with 100 ng/mL purified bacterial lipopolysaccharide (LPS) for 2 hours. Again, NF-κB DNA binding and ReIA subunit nuclear localization were both inhibited as were phosphorylation of the IKK2 activation loop and degradation of IκBα. […] The effect of TAT-NEMO^ActPep on NF-κB DNA binding was also analyzed in MEF cells by EMSA.

[5] = test system: NF-κB DNA binding in MEF cells; assay: EMSA of NF-κB DNA binding in TNF-α-treated MEF cells; assay type: cell-based, mouse; settings: peptide 10-50 μM
Procedure: as §1, with “Pellets were resuspended in nuclear extraction buffer (25 mM Tris-HCl pH 7.5, 420 mM NaCl, 10% glycerol, 0.2 mM EDTA, 1 mM DTT, 0.5 mM PMSF, 1×protease inhibitor cocktail) once and then subjected to three lysis cycles (freeze at −80° C. and thaw at 37° C.).” left out, “Nuclear and cytoplasmic extracts were aliquoted and kept at −80° C.” left out
as §4, §5

[6] = test system: non-canonical NF-κB signaling (IKK1, p100 processing); assay: Western blot of p100 processing after LTβR engagement (non-canonical NF-κB signaling); assay type: cell-based; settings: increasing peptide concentrations; HeLa cells per FIG. 5C legend
Procedure: as §2
Equivalent amounts of protein from cell extracts was separated by SDS-PAGE and transferred to polyvinylidene fluoride (PVDF) membranes (Millipore, Bedford, MA, USA). The membrane was blocked with 5% bovine serum albumin (BSA) for 1 hour at room temperature and then the membrane was incubated with the primary antibodies overnight at 4° C. […]

[7] = test system: MAP kinases JNK, Erk2 and p38; assay: Western blot of MAP kinase phosphorylation in TNF-α-treated HeLa cells; assay type: cell-based, human
Procedure: as §3
It was also tested if TAT-NEMO^ActPep has any effect on non-canonical NF-κB signaling. This alternative NF-κB signaling pathway is activated in response to stimulation of specific cytokine receptors and leads to activation of IKK1 and consequent processing of the p100 precursor to the mature NF-κB subunit p52 (30,31). […] To further investigate the possible involvement of TAT-NEMO^ActPep in other signaling pathways, the effect of the peptide on MAPK activation was tested by monitoring the phosphorylation status of JNK, Erk2, and p38 upon TNF-α treatment of HeLa cells. […]

binding of Oct1 to its probe (EMSA) [1]: not affected
Substance: TAT-NEMO^ActPep: HIV-1 TAT fused flexibly to human NEMO amino acids 375-391; cell permeable version of NEMO activation peptide (SEQ ID NO 2) (YGRKKRRQRRRGGLSSPLALPSQRRSPPEE)
IKK2 activation loop phosphorylation (western blot) [2]: blocked; also recorded: significantly diminished
IκBα degradation / proteolysis (western blot) [2]: blocked; also recorded: significantly diminished
NF-κB ReIA/p65 subunit nuclear localization (western blot) [2]: blocked; also recorded: significantly diminished
NF-κB activity by EMSA relative to TAT-NEMO^ActPep 6G, compared with HeLa cells ([3]; LPS-treated RAW 264.7 nuclear lysates, peptide 5-55 μM): to a similar degree as that observed in HeLa cells
NF-κB DNA binding ([3]; RAW 264.7 cells, 100 ng/mL LPS for 2 hours): inhibited
ReIA subunit nuclear localization (western blot) [4]: inhibited
degradation of IκBα (western blot) [4]: inhibited
phosphorylation of the IKK2 activation loop (western blot) [4]: inhibited
NF-κB activation in response to TNF-α (EMSA) [5]: inhibited NF-κB activation
processing of p100 in response to LTβR engagement (western blot) [6]: not observed any effect; also recorded: no change in the extent of p100 processing
phosphorylation of JNK, Erk2 and p38 MAP kinases (western blot) [7]: Neither TAT-NEMO^ActPep nor TAT-NEMO^ActPep 6G influenced; also recorded: no effect
